Data taken from US10780092B2, “Fused pyrazine derivatives useful as soluble guanylate cyclase stimulators” (Merck Sharp & Dohme Corp., priority 2016, dated 2020).

Legend:
sGC α1/β1 heterodimer = sGC α1/β1 heterodimer (Homo sapiens (Human), UniProt Q02108+Q02153); experiment: Cell-based sGC functional assay (CASA assay), cGMP by HTRF; conditions: CHO-K1/sGC cells; for Emax: CHO-K1, cGMP production as percentage of maximum of compound A (set to 100%), read-out: % Activation; for EC50: inflection point of cGMP production, 4P fit, read-out: IP
How it was run: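 CHO-K1 cells stably expressing human sGC α1/β1, with 0.5 mM IBMX, pre-incubated ±1 μM DETA-NO 30 min at 25° C, then compound 1 hr at 37° C (2.5% DMSO). cGMP by HTRF; activation as % of reference activator maximum, 4P fit giving inflection point and maximum […].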

[1] = target: human recombinant sGC enzyme (Homo sapiens (Human), UniProt Q02108+Q02153); experiment: SEC competition binding assay with [3H] Compound B radioligand; conditions: displacement of 1.6 nM [3H] Compound B, 24 h at 37° C.
How it was run: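 Recombinant human sGC incubated with 1.6 nM [3H] Compound B and test compounds for 24 h at 37° C. Buffer: 50 mM triethanolamine pH 7.4, 3 mM MgCl2, 0.025% BSA, 2 mM DTT, 300 μM DETA/NO, 400 μM GTP, 1% DMSO. Bound ligand separated by gel filtration and counted by scintillation; non-specific binding with 1 μM Compound B; Ki from one-site fit.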

[2] = tested on: hypoxia-induced pulmonary hypertension in rat; experiment: Acute efficacy in hypoxia-induced pulmonary hypertension in rat following intratracheal (IT) administration; assay type: in vivo; conditions: decrease in SBP at dose giving decrease in PAP ≥15 mmHg
Excerpt: Acute Efficacy in Hypoxia-Induced Pulmonary Hypertension in Rat Following Intratracheal (IT) Administration Charles River Sprague-Dawley (CD) male rats weighing approximately 350 g were implanted with HD-S21 dual pressure telemetry transmitters (Data Sciences International (DSI)) into the pulmonary artery and femoral artery. This transmitter enables simultaneous measurement of both pulmonary and systemic hemodynamic parameters in the same animal. After a 7-10 day post-operative recovery period, animals were subjected to a normobaric hypoxic (10% oxygen) environment using a Higher Peak Mountain Air Generator (MAG-10) connected to a modified rodent cage via a fitted inlet port. Oxygen (at 10%), temperature, humidity, and CO2 were controlled within normal range and animals were maintained on a 12 hour light-dark cycle with ad libitum access to food and water. After two weeks exposure to 10% O2 hypoxic environment, systolic pulmonary arterial pressure readings increased from ˜25 mmHg to greater than 50 mmHg. Using a 48 hour baseline average, animals with readings between 50-110 mmHg (standard deviation of less than 10 mmHg) and minimal changes in systolic systemic blood pressure were enrolled for study. Animals were utilized for up to 2 studies per week for 4 weeks with a minimum of 2 days washout between doses of test agent. Compound or vehicle was administered intra-tracheally under light isoflurane anesthesia (5% in oxygen; flow rate 2.0 L/min for 3 minutes). Once anesthetized, rats were placed on an angled intubation stand in supine position and the trachea visualized using a small laryngoscope. Animals then received either 0.5 mL/kg of vehicle or 0.5 mL/kg vehicle containing compound intra-tracheally delivered via microsprayer by use of a Penn-Century Microsprayer® needle 3″ (Model IA-1B-GP) attached to a 1 mL high pressure syringe (Penn Century-Model B—SYR-PL1000) (Penn-Century, Philadelphia, Pa.). The Microsprayer® tip was inserted into the trachea up to the point at which the bend in the needle is close to the tip of the snout, which positions the tip of the Microsprayer® in front of the carina (bifurcation of trachea at the bronchi). After dose delivery the animal is placed on its back in the home cage for recovery. Hemodynamic measurements were continuously recorded and readings consolidated to hourly moving averages. Each animal received a vehicle on Day 1 followed by vehicle or test agent on Day 2. Change from vehicle baseline was calculated by subtracting the hourly Day 1 vehicle response from the hourly Day 2 response and treatment group data was expressed as mean±SEM. Decreases of systolic blood pressure (SBP) and systolic pulmonary arterial pressure (PAP) were measured at a particular IT dose (mpk milligrams per kilogram) for the following Example compounds. Compounds in the Table 13 achieved a minimum decrease in PAP of ≥15 mmHg for the corresponding decrease in SBP listed.

| Structure (SMILES) | Emax (sGC α1/β1 heterodimer) [%] | EC50 (sGC α1/β1 heterodimer) [nM] | Ki [1] [nM] | Category (decrease in SBP) ([2]; IT dose 0.03 mpk) | Category (decrease in SBP) ([2]; IT dose 0.3 mpk) | Category (decrease in SBP) ([2]; IT dose 0.01 mpk) |
| --- | --- | --- | --- | --- | --- | --- |
| CC1(c2cc(O)c(C#N)c(F)c2)C(=O)Nc2nc(-c3cn4ccnc4c(Cc4cc(F)cc(F)c4)n3)nc(N)c21 (stereo not shown) [Example 38-B, 4-(4-Amino-2-{8-[(3,5-difluorophenyl)methyl]imidazo[1,2-a]pyrazin-6-yl}-5-methyl-6-oxo-6,7-dihydro-5H-pyrrolo[2,3-d]pyrimidin-5-yl)-2-fluoro-6-hydroxybenzonitrile] | 92 | 720 | 0.41 | A (decrease in SBP 0-5 mmHg) |  |  |
| CC1(c2cc(O)c(C#N)c(F)c2)C(=O)Nc2nc(-c3cn4ccnc4c(Cc4ccccc4F)n3)nc(N)c21 (stereo not shown) [Example 23-B, 4-(4-Amino-2-{8-[(2-fluorophenyl)methyl]imidazo[1,2-a]pyrazin-6-yl}-5-methyl-6-oxo-6,7-dihydro-5H-pyrrolo[2,3-d]pyrimidin-5-yl)-2-fluoro-6-hydroxybenzonitrile] | 76 | 3110 | 0.216 | A (decrease in SBP 0-5 mmHg) |  |  |
| CC1(c2cc(O)c(Cl)c(F)c2)C(=O)Nc2nc(-c3cn4ccnc4c(Cc4cc(F)cc(F)c4)n3)nc(N)c21 (stereo not shown) [Example 16-B, 4-Amino-5-(4-chloro-3-fluoro-5-hydroxyphenyl)-2-{8-[(3,5-difluorophenyl)methyl]imidazo[1,2-a]pyrazin-6-yl}-5-methyl-5,7-dihydro-6H-pyrrolo[2,3-d]pyrimidin-6-one] | 94 | 308 | 0.158 |  |  |  |
| CC1(c2ccc(Cl)c(O)c2)C(=O)Nc2nc(-c3cn4ccnc4c(Cc4cc(F)cc(F)c4)n3)nc(N)c21 (stereo not shown) [Example 36-A, 4-Amino-5-(4-chloro-3-hydroxyphenyl)-2-{8-[(3,5-difluorophenyl)methyl]imidazo[1,2-a]pyrazin-6-yl}-5-methyl-5,7-dihydro-6H-pyrrolo[2,3-d]pyrimidin-6-one] | 116 | 381 | 0.393 |  |  |  |
| CC1(c2ccc(O)cc2)C(=O)Nc2nc(-c3cn4ccnc4c(CCC4CCCCC4)n3)nc(N)c21 (stereo not shown) [Example 85-B, 4-Amino-2-(8-(2-cyclohexylethyl)imidazo[1,2-a]pyrazin-6-yl)-5-(4-hydroxyphenyl)-5-methyl-5,7-dihydro-6H-pyrrolo[2,3-d]pyrimidin-6-one] | 130 | 605 | 4.82 |  |  |  |
| CC1(c2cc(O)c(C(F)(F)F)cn2)C(=O)Nc2nc(-c3cn4ccnc4c(Cc4ccccc4F)n3)nc(N)c21 (stereo not shown) [Example 146-B, 4-amino-2-(8-{2-fluorobenzyl}imidazo-[1,2-a]pyrazin-6-yl)-5-(4-hydroxy-5-(trifluoromethyl)-pyridin-2-yl)-5-methyl-5,7-dihydro-6H-pyrrolo-[2,3-d]pyrimidin-6-one] | 96 | 2350 | 0.378 |  |  |  |
| CC1(c2ccc(Cl)c(O)c2)C(=O)Nc2nc(-c3cn4ncnc4c(CCCCF)n3)nc(N)c21 (stereo not shown) [Example 106-A, 4-Amino-5-(4-chloro-3-hydroxyphenyl)-2-(8-(4-fluorobutyl)-[1,2,4]triazolo[1,5-a]pyrazin-6-yl)-5-methyl-5,7-dihydro-6H-pyrrolo[2,3-d]pyrimidin-6-one] | 81 | 902 | 1.84 |  |  |  |

Stronger by EC50 (sGC α1/β1 heterodimer), values ahead:

| Emax (sGC α1/β1 heterodimer) [%] | EC50 (sGC α1/β1 heterodimer) [nM] | Ki [1] [nM] | Structure (SMILES) | Category (decrease in SBP) ([2]; IT dose 0.03 mpk) | Category (decrease in SBP) ([2]; IT dose 0.3 mpk) | Category (decrease in SBP) ([2]; IT dose 0.01 mpk) |
| --- | --- | --- | --- | --- | --- | --- |
| 118 | 226 | 0.095 | CC1(c2ccc(Cl)c(O)c2)C(=O)Nc2nc(-c3cn4ccnc4c(Cc4cccc(F)c4)n3)nc(N)c21 (stereo not shown) [Example 1-A, 4-Amino-5-(4-chloro-3-hydroxyphenyl)-2-{8-[(3-fluorophenyl)methyl]imidazo[1,2-a]pyrazin-6-yl}-5-methyl-5,7-dihydro-6H-pyrrolo[2,3-d]pyrimidin-6-one] |  |  | A (decrease in SBP 0-5 mmHg) |
| 97 | 221 | 0.634 | CC1(c2cc(O)ccn2)C(=O)Nc2nc(-c3cn4ncnc4c(CC4CCCCC4)n3)nc(N)c21 (stereo not shown) [Example 109-A, 4-Amino-2-(8-(cyclo-hexylmethyl)-[1,2,4]-triazolo[1,5-a]pyrazin-6-yl)-5-(4-hydroxy-pyridin-2-yl)-5-methyl-5,7-dihydro-6H-pyrrolo-[2,3-d]pyrimidin-6-one] | C (decrease in SBP >10 mmHg) |  |  |
| 93 | 202 | 8.88 | CC1(c2cccc(O)c2)C(=O)Nc2nc(-c3cn4ncnc4c(CCC(F)(F)C(F)(F)F)n3)nc(N)c21 (stereo not shown) [Example 78-B, 4-Amino-5-(3-hydroxyphenyl)-5-methyl-2-(8-(3,3,4,4,4-pentafluorobutyl)-[1,2,4]triazolo[1,5-a]pyrazin-6-yl)-5,7-dihydro-6H-pyrrolo[2,3-d]pyrimidin-6-one] |  | C (decrease in SBP >10 mmHg) |  |
| 135 | 198 | 0.221 | Cc1ccc(C2(C)C(=O)Nc3nc(-c4cn5ccnc5c(Cc5cccc(F)c5)n4)nc(N)c32)cc1O (stereo not shown) [Example 107-B, 4-Amino-2-{8-[(3-fluorophenyl)methyl]imidazo[1,2-a]pyrazin-6-yl}-5-(3-hydroxy-4-methylphenyl)-5-methyl-5,7-dihydro-6H-pyrrolo[2,3-d]pyrimidin-6-one] |  |  | A (decrease in SBP 0-5 mmHg) |
| 108 | 138 | 0.213 | CC1(c2cc(O)c(Cl)cn2)C(=O)Nc2nc(-c3cn4ncnc4c(CC4CCCCC4)n3)nc(N)c21 (stereo not shown) [Example 105-B, 4-Amino-5-(5-chloro-4-hydroxypyridin-2-yl)-2-(8-(cyclohexylmethyl)-[1,2,4]triazolo[1,5-a]pyrazin-6-yl)-5-methyl-5,7-dihydro-6H-pyrrolo[2,3-d]pyrimidin-6-one] | B (decrease in SBP 5-10 mmHg) |  |  |
| 94 | 109 | 8.55 | CC1(c2ccc(O)c(F)c2)C(=O)Nc2nc(-c3cn4ccnc4c(CCC(F)(F)C(F)(F)F)n3)nc(N)c21 (racemic) [Example 117-B, 4-Amino-5-(3-fluoro-4-hydroxyphenyl)-5-methyl-2-(8-(3,3,4,4,4-pentafluorobutyl)-imidazo[1,2-a]pyrazin-6-yl)-5,7-dihydro-6H-pyrrolo[2,3-d]pyrimidin-6-one] |  | C (decrease in SBP >10 mmHg) |  |
| 80 | 67 | 0.291 | CC1(c2ccc(O)c(F)c2)C(=O)Nc2nc(-c3cn4ccnc4c(Cc4ccc(F)cc4)n3)nc(N)c21 (stereo not shown) [Example 29-B, 4-Amino-5-(3-fluoro-4-hydroxyphenyl)-2-{8-[(4-fluorophenyl)methyl]imidazo[1,2-a]pyrazin-6-yl}-5-methyl-5,7-dihydro-6H-pyrrolo[2,3-d]pyrimidin-6-one] | C (decrease in SBP >10 mmHg) |  |  |
| 79 | 63 | 5.03 | CC1(c2ccc(F)c(O)c2)C(=O)Nc2nc(-c3cn4ccnc4c(CCC(F)(F)C(F)(F)F)n3)nc(N)c21 (racemic) [Example 115-B, 4-Amino-5-(4-fluoro-3-hydroxyphenyl)-5-methyl-2-(8-(3,3,4,4,4-pentafluorobutyl)-imidazo[1,2-a]pyrazin-6-yl)-5,7-dihydro-6H-pyrrolo[2,3-d]pyrimidin-6-one] |  | C (decrease in SBP >10 mmHg) |  |
